In patent publication US20070148094A1, “Polymeric imaging agents and medical imaging methods” (priority 2005, published 2007):

Test system: rat mammary tumor line (MAT-B-III)
Test: Optical (NIR fluorescence) imaging of tumor to background ratio in tumor rat model
Type: in vivo
Excerpt: For optical imaging the signal to ratio background ratio is defined as the mean fluorescence intensity (target tissue)/mean fluorescence intensity (background tissue). For optical imaging methods, target to background ratio may be determined using computer-controlled (LabVIEW) camera acquisition via custom LabVIEW software. […] A region of interest (ROI) maybe defined in both the tumor area and the background tissue area. Fluorescence emission from the ROI may be received at a near-infrared sensitive 12-bit CCD camera, in which the intensities range from 0-4095.
Optical Imaging Using Tumor Rat Model. Step 1. Introduction of Tumor Cells into Animal. Intra-mammary gland tumor injection is a survival surgery. All procedures are performed with the animal lying on a circulating water pad. With the anesthetized rat lying on its back, the sterile prepped ventral abdominal skin is picked up, just above the left groin (inguinal) area and a small incision is made with scissors being careful to avoid the underlying peritonium. The fourth mammary gland is easily visible, lying on the dorsal surface of the skin directly on top of a junction point for the mammary artery and vein. Using a 1 cc syringe, 10^6 cells (0.1 ml) were injected directly into the gland. Only one mammary gland per rat was inoculated with tumor cells. The skin wound was closed with surgical staples. Surgical staples were removed 3 days after insertion.
Animals are treated with test agents and imaged 7 days after tumor injections. Test agents are administered via a tail vein injection (100-500 μl). For MR studies, animals received a pre-injection scan, followed by post-injection scans. Images were obtained post injection at approximately 4-minute intervals following injection for up to 30-40 minutes. In some experiments images were again taken at 24 hours after injection. For optical studies, animals were imaged at 0.5, 6, 12, and 24 hours.
Step 2. Agent Administration. After approximately 8 days following tumor cell implantation (the tumor size reached about 5-10 mm diameter) one of several imaging agents listed in Table 2 was administered to the animal at the corresponding dosage indicated in Table 2.
Step 3. Surgical Resection. Surgical tumor resection is a non-survival surgery. Tumors were resecteded when they reached a diameter in the range of 5-10 mm in diameter. With the anesthetized rat lying on its back, the ventral abdominal skin is picked up, just above the left groin (inguinal) area and a small incision is made (at or near the site of tumor inoculation) with scissors being careful to avoid the underlying peritonium. The tumor, growing in the mammary gland, stays contained in this tissue and is easily removed. The tumor was held with a pair of forceps and using a scalpel is removed from the surrounding connective tissue. After the tumor was removed, a midline incision, through the peritoneum was made, other organs were observed and imaged, and sampled for histological and biodistribution studies.
Step 4. Data Capture. Images were captured for later evaluation of the relative intensity of fluorescence in the kidney, liver, bladder, muscle etc. Samples of blood and urine were acquired and stored, the animal was sacrificed, and the clearance organs were removed from animal and frozen in a slurry of dry ice and 2-methylbutane. The tissues were then placed in an embedding medium (OCT, […]) and frozen at −80° C. Blood and urine samples were analyzed for concentration of agent at this time point, and for evidence of metabolism of the administered agent.
Statistical Analysis of Optical Imagine Results. To reduce the large number of variables in this problem and one polymer length (˜400 residues) was chosen at a high percentage conjugation (˜96%) for the MR imaging moiety (Gd-DTPA) with one dye per molecule. In one set of experiments, a tetra-sulfonated dye (Cy5.5-NHS-Ester) was then compared with a bis-sulfonated dye (Cy5-NHS-Ester). […]

Measured: Average of Tumor/Bkgnd

CC[N+]1=C(C=CC=CC=C2N(CCCCCC(=O)O)c3ccc(S(=O)(=O)[O-])cc3C2(C)C)C(C)(C)c2cc(S(=O)(=O)[O-])ccc21.[Na+] [Cy5 free dye, 2-[5-[1-(5-carboxypentyl)-1,3-dihydro-3,3-dimethyl-5-sulfo-2H-indol-2-ylidene]-penta-1,3-dienyl]-3,3-dimethyl-5-sulfo-1-ethyl-3H-indolium, inner salt, sodium salt]
1.17: dose printed as 'blank', 6 hours post injection | dose printed as 'blank', 24 hours post injection | dose printed as 'blank', Total over time points | vector subtotal over all doses, 6 hours post injection | vector subtotal over all doses, 24 hours post injection | vector subtotal over all doses, Total over time points
1.18: dose printed as 'blank', 12 hours post injection | vector subtotal over all doses, 12 hours post injection
